Experimental findings from US20190192697A1, “CHEMICAL PROBES OF LYSYL OXIDASK-LIKE 2 AND USES THEREOF” (PHARMAKEA, INC., priority 2016, published 2019) are described below.

Structures are written as SMILES. Structures can show the parent of a compound that is named as a salt.

The target of test [1] is T1, LOXL2 (Homo sapiens, UniProt Q9Y4K0).
T1 sequence (Q9Y4K0 26-774): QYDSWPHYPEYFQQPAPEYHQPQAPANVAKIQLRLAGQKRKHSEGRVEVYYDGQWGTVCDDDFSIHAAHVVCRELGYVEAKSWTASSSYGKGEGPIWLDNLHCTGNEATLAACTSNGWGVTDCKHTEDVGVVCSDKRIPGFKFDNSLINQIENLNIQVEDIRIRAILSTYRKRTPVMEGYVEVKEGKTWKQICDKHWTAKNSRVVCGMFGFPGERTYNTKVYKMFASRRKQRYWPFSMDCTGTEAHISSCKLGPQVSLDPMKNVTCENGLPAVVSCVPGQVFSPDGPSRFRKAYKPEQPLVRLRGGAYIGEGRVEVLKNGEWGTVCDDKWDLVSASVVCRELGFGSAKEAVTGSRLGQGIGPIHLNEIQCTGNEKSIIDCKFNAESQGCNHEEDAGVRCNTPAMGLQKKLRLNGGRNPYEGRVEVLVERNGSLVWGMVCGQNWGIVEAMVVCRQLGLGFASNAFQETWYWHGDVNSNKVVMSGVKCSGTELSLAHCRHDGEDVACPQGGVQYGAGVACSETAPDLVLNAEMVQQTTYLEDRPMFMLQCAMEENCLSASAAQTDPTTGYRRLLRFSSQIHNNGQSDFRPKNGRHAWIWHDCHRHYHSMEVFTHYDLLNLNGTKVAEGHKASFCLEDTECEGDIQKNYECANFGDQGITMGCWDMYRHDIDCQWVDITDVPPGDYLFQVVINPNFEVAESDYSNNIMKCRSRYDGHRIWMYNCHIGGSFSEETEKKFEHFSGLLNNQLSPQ
The test can be described thus: Human LOXL2 amine oxidase activity assay (Amplex Red). It is filed as biochemical. The arrangement: expressed in transfected cells; host or cells: CHO cells stably expressing human LOXL2; 10-20x concentrated conditioned media. Particulars: concentrated conditioned media from CHO cells expressing human LOXL2; 2 h at 37° C. pre-incubation. As to the method:
LOXL2 amine oxidase activity is evaluated by measuring Amplex Red fluorescence using 10-20× concentrated conditioned media from CHO cells stably expressing human LOXL2. To assay for amine oxidase activity, 10 μL of the concentrated conditioned media is incubated with 2 μL of test compound in DMSO and 73 μL Assay Buffer (50 mM Borate Buffer, pH8) for 2 h at 37° C. After the 2 h incubation, 5 μL of 10 mM 1,5-diaminopentane (DAP) diluted in Assay Buffer and 10 μL of Amplex Red Mix (8.5 μL Assay Buffer+0.5 μL of 10 mM Amplex Red+1 μL of 500 U/mL Horseradish Peroxidase) are added and the plate mixed and immediately placed on the FlexStaion for fluorescence measurements. Fluorescence is read in kinetic mode every 2 min for 1 hour at excitation=544 nm and emission=590 nm. The amine oxidase activity is calculated from the slope of the linear portion of the curve.

For test [2], the target named is T1, LOXL2. Put plainly: Western-based quantification of free LOXL2 captured with biotinylated LOXL2 inhibitor (Compound 1-1). It is filed as binding. The following applies: pre-incubation with 1-13a 1-2 hrs at 37° C., capture with Compound 1-1. As for the experimental part: To quantify LOXL2 using a Western-based assay, a suitable amount of the LOXL2 inhibitor 1-13a, such as 10 or DMSO was pre-incubated with a suitable amount of LOXL2, such as 1 ng, 10 ng, or 100 ng, for a suitable amount of time at an appropriate temperature, such as 1-2 hrs at 37° C. Then an appropriate amount of the biotinylated labeled LOXL2 inhibitor (Compound 1-1), such as 5, was added and was allowed to incubate with the LOXL2 for a suitable amount of time at an appropriate temperature, such as 1 hr at 37° C. Then the biotinylated labeled LOXL2 inhibitor (Compound 1-1)/LOXL2 complex was isolated with Streptavidin coated magnetic beads. After incubation with the streptavidin magnetic beads for an appropriate amount of time, a magnet (for example, DynaMag™-2 Magnet) was used to capture the biotinylated labeled LOXL2 inhibitor (Compound 1-1)/LOXL2 bead bound complex and the supernatant was removed. […]
A Western Blot is then performed with an anti-LOXL2 antibody to quantify the amount of LOXL2 bound to the biotinylated LOXL2 inhibitor (Compound 1-1).

As usually defined, the IC50 is the concentration at which inhibition is half-maximal. Low values mean higher potency, high ones lower potency. At LOXL2 [1], `NCc1cc(Oc2cccc(C(=O)N3C[C@@H](O)[C@H](F)C3)c2)nc(C(F)(F)F)c1` [Compound 1-13a, (R,R)-trans-(3-((4-(Aminomethyl)-6-(trifluoromethyl)pyridin-2-yl)oxy)phenyl)(3-fluoro-4-hydroxypyrrolidin-1-yl)methanone hydrochloride] registered a half-inhibitory concentration (IC50) below 300 nM. Further, the “reduction of unbound/free LOXL2 captured by the biotinylated LOXL2 inhibitor” value at LOXL2 [2] was 70-100%.
